For 7 molecules, Bliss excess results are on record in the supplement of paper PMC11061612.

What all share (experiment): Bliss excess, mean over the matrix (fraction); higher = more synergy
One experiment has as its system A673 (Ewing's Sarcoma). The gist of the method:
(§1)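 After 24 hours at 37°C and 5% CO2 in 1536-well plates, cells in DMEM/F12 or RPMI plus 10% FBS received two-drug dose matrices for 72 hours. Viability came from CellTiter-Glo 2.0 luminescence and was scaled as inhibition, anchored at 0 by vehicle wells and at 1 by blank wells. Combination Emax is taken as the second-highest inhibition in the matrix, and Bliss excess as the observed combination effect less EA + EB − EA·EB, with EA and EB the single-agent effects.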

Experiment [1] deals with ALL-PO (B-Lymphoblastic Leukemia). An outline of the steps: as §1
A further experiment relates to BE2-M17 (Neuroblastoma). An outline of the steps:
as §1

The test system of the next experiment is BPH-1 (Non-Cancerous). The gist of the method:
as §1

The subject of experiment [2] is CAL-33 (Oral Cavity Carcinoma). The gist of the method: as §1
Another experiment relates to CAL-72 (Osteosarcoma). An outline of the steps: as §1
For experiment [3], the system named is Detroit562 (Head and Neck Carcinoma). An outline of the steps: as §1
In experiment [4] the test system is ESS-1 (Other Solid Carcinomas). An outline of the steps:
as §1

For the next experiment, the system named is EW-11 (Ewing's Sarcoma). The gist of the method:
as §1

In experiment [5] the test system is Hs-746T (Gastric Carcinoma). The gist of the method:
as §1

For experiment [6], the system named is HuH-7 (Hepatocellular Carcinoma). The gist of the method:
as §1

A further experiment deals with KS-1 (Glioblastoma). An outline of the steps:
as §1

Experiment [7] has as its system LCLC-97TM1 (Non-Small Cell Lung Carcinoma). An outline of the steps: as §1
Experiment [8] relates to NCI-H1568 (Lung Adenocarcinoma). An outline of the steps:
as §1

For a further experiment, the system named is NCI-H2722 (Mesothelioma). An outline of the steps: as §1
Experiment [9] deals with NCI-H524 (Small Cell Lung Carcinoma). The gist of the method: as §1
In experiment [10] the test system is OE21 (Esophageal Squamous Cell Carcinoma). The gist of the method:
as §1

The subject of experiment [11] is TGBC1TKB (Biliary Tract Carcinoma). The gist of the method:
as §1

Experiment [12] has as its system WSU-NHL (B-Cell Non-Hodgkin's Lymphoma). An outline of the steps: as §1
For experiment [13], the system named is YAPC (Pancreatic Carcinoma). An outline of the steps:
as §1

`CC1(C)CCC(CN2CCN(c3ccc(C(=O)NS(=O)(=O)c4ccc(NCC5CCOCC5)c([N+](=O)[O-])c4)c(Oc4cnc5[nH]ccc5c4)c3)CC2)=C(c2ccc(Cl)cc2)C1` [Venetoclax] + Cn1cnc2c(F)c(Nc3ccc(Br)cc3Cl)c(C(=O)NOCCO)cc21 [Selumetinib] (first compound max 1 µM, 7x7, partner max 3 µM): the Bliss excess with A673 (Ewing's Sarcoma) is 0.0048; in experiment [1], 0.0801; in the experiment with BE2-M17 (Neuroblastoma) it was -0.0116; in the experiment on BPH-1 (Non-Cancerous), 0.0055; in experiment [2], -0.0292; with CAL-72 (Osteosarcoma) it was -0.0593. In addition, the Bliss excess is -0.0516 in [3]; -0.0393 in experiment [4]; -0.0583 in the experiment on EW-11 (Ewing's Sarcoma); -0.0192 in [5]; -0.055 in [6]; 0.0043 in the experiment on KS-1 (Glioblastoma). The Bliss excess in [7] was -0.0023; in [8], -0.0681; in the experiment with NCI-H2722 (Mesothelioma) it was -0.0741; in [9] it was -0.0392; in experiment [10], 0.0044; in [11], -0.0542. The figures for the Bliss excess in experiment [12] and in experiment [13] were -0.131 and -0.0474, respectively.
For `COc1cccc2c1C(=O)c1c(O)c3c(c(O)c1C2=O)C[C@@](O)(C(=O)CO)C[C@@H]3O[C@H]1C[C@H](N)[C@H](O)[C@H](C)O1` [Doxorubicin] + Cc1cc2ncnn2cc1Nc1ncc2c(n1)n(C1CCOCC1)c(=O)n2C [AZD7648] (first compound max 1 µM, 7x7, partner max 10 µM), the Bliss excess with A673 (Ewing's Sarcoma) was 0.0816; in experiment [1] it was 0.143; with BE2-M17 (Neuroblastoma) it was 0.0514; with BPH-1 (Non-Cancerous), 0.0736; in [2], 0.0998; in the experiment on CAL-72 (Osteosarcoma) it was -0.0164. Moreover, the Bliss excess was 0.103 in experiment [3]; 0.0112 in [4]; 0.0408 with EW-11 (Ewing's Sarcoma); 0.0464 in [5]; -0.0513 in experiment [6]; 0.0176 in the experiment with KS-1 (Glioblastoma). In addition, the Bliss excess was 0.0332 in experiment [7]; -0.0357 in experiment [8]; 0.0336 in the experiment on NCI-H2722 (Mesothelioma); 0.145 in experiment [9]; 0.0511 in [10]; -0.0247 in experiment [11]. Besides, the values for the Bliss excess in experiment [12] and in [13] were 0.0404 and -0.0304, respectively.
Turning to `Cc1c2c(nn1C)CSCc1cc(n(C)n1)CSc1cc(c3ccccc3c1)OCCCc1c(C(=O)O)n(C)c3c-2c(Cl)ccc13` [AZD5991] + CCN(CCO)CCCOc1ccc2c(Nc3cc(CC(=O)Nc4cccc(F)c4)[nH]n3)ncnc2c1 [AZD2811] (first compound max 1 µM, 7x7, partner max 1 µM), the Bliss excess is 0.0886 in the experiment with A673 (Ewing's Sarcoma); -0.0077 in experiment [1]; 0.0668 with BE2-M17 (Neuroblastoma); 0.0077 with BPH-1 (Non-Cancerous); 0.0153 in experiment [2]; 0.0582 in the experiment with CAL-72 (Osteosarcoma). In addition, the Bliss excess in experiment [3] is 0.0396; in experiment [4], -0.0014; with EW-11 (Ewing's Sarcoma) it was 0.0342; in [5], -0.0477; in experiment [6], 0.0109; with KS-1 (Glioblastoma), -0.0459. Further, the Bliss excess in experiment [7] is 0.0885; in [8] it was -0.0051; in the experiment on NCI-H2722 (Mesothelioma), -0.0407; in experiment [9] it was -0.0016; in [10], 0.0345; in [11], -0.0141. Further, the Bliss excess in [12] was -0.0206; in experiment [13], -0.0037.
Turning to `Cn1cnc2c(F)c(Nc3ccc(Br)cc3Cl)c(C(=O)NOCCO)cc21` [Selumetinib] + CC(C)n1c(=O)n(C)c2cnc3cc(F)c(-c4ccc(OCCCN5CCCCC5)nc4)cc3c21 [AZD1390] (first compound max 10 µM, 7x7, partner max 0.3 µM), the Bliss excess is -0.0481 with A673 (Ewing's Sarcoma); 0.0208 in experiment [1]; -0.0293 in the experiment with BE2-M17 (Neuroblastoma); 0.026 in the experiment on BPH-1 (Non-Cancerous); 0.0649 in experiment [2]; -0.0484 in the experiment with CAL-72 (Osteosarcoma). Further, the Bliss excess in [3] was 0.003; in experiment [4], -0.0044; in the experiment on EW-11 (Ewing's Sarcoma), -0.0399; in experiment [5] it was -0.0257; in experiment [6], -0.0205; with KS-1 (Glioblastoma), -0.0384. The Bliss excess in [7] is 0.0069; in experiment [8], -0.0508; with NCI-H2722 (Mesothelioma), -0.0678; in experiment [9] it was -0.0286; in [10], 0.014; in experiment [11] it was -0.0157. Also, the Bliss excess was -0.0059 in experiment [12] and -0.033 in experiment [13].
For the molecule `NC1(C(=O)N[C@@H](CCO)c2ccc(Cl)cc2)CCN(c2ncnc3[nH]ccc23)CC1` [Capivasertib] + CC(=O)c1c(C)c2cnc(Nc3ccc(N4CCNCC4)cn3)nc2n(C2CCCC2)c1=O [Palbociclib] (first compound max 10 µM, 7x7, partner max 10 µM), the Bliss excess with A673 (Ewing's Sarcoma) was -0.018; in [1], -0.0252; in the experiment with BE2-M17 (Neuroblastoma), 0.0059; in the experiment on BPH-1 (Non-Cancerous) it was -0.0574; in experiment [2] it was 0.0918; with CAL-72 (Osteosarcoma), 0.0236. The Bliss excess in experiment [3] is 0.0585; in experiment [4], -0.0479; in the experiment with EW-11 (Ewing's Sarcoma) it was 0.0121; in experiment [5], -0.0322; in experiment [6], 0.0124; in the experiment on KS-1 (Glioblastoma) it was -0.0656. Moreover, the Bliss excess in experiment [7] was 0.0152; in [8] it was -0.124; in the experiment on NCI-H2722 (Mesothelioma), -0.0436; in [9], 0.0047; in experiment [10], 0.0379; in experiment [11], 0.0157. The Bliss excess in [12] was -0.0671; in [13] it was 0.0043.
As for `COc1nnc2ccc(N3CCC(c4ccc(OCCN5CCN(C)C(=O)[C@H]5C)cc4)CC3)nn12` [AZD5153] + CC1(C)CCC(CN2CCN(c3ccc(C(=O)NS(=O)(=O)c4ccc(NCC5CCOCC5)c([N+](=O)[O-])c4)c(Oc4cnc5[nH]ccc5c4)c3)CC2)=C(c2ccc(Cl)cc2)C1 [Venetoclax] (first compound max 1 µM, 7x7, partner max 1 µM), the Bliss excess in the experiment with A673 (Ewing's Sarcoma) is -0.0706; in experiment [1], 0.058; with BE2-M17 (Neuroblastoma), 0.0308; in the experiment with BPH-1 (Non-Cancerous), -0.0574; in [2], -0.0393; with CAL-72 (Osteosarcoma), -0.0305. For the same molecule, the Bliss excess is -0.0552 in experiment [3]; -0.017 in [4]; -0.117 in the experiment on EW-11 (Ewing's Sarcoma); -0.119 in [5]; -0.0987 in experiment [6]; -0.0763 with KS-1 (Glioblastoma). Moreover, the Bliss excess in [7] was -0.0277; in experiment [8] it was -0.0383; in the experiment on NCI-H2722 (Mesothelioma), -0.0485; in experiment [9], -0.037; in experiment [10] it was -0.0352; in [11], 0.0071. Further, the values for the Bliss excess in experiment [12] and in [13] were 0.0355 and -0.0115, respectively.
Take `CN(CCO)CC[C@H](CSc1ccccc1)Nc1ccc(S(=O)(=O)NC(=O)c2ccc(N3CCC([C@@H](O)c4ccccc4-c4ccc(Cl)cc4)CC3)cc2)cc1S(=O)(=O)C(F)(F)F` [AZD4320] + C[C@@H]1COCCN1C2=NC(=NC(=C2)C3(CC3)[S@](=N)(=O)C)C4=C5C=CNC5=NC=C4 [AZD6738] (first compound max 1 µM, 7x7, partner max 10 µM): the Bliss excess was 0.028 in the experiment on A673 (Ewing's Sarcoma); 0.0019 in experiment [1]; -0.0458 with BE2-M17 (Neuroblastoma); -0.0979 with BPH-1 (Non-Cancerous); 0.0019 in experiment [2]; 0.05 with CAL-72 (Osteosarcoma). Also, the Bliss excess was -0.015 in experiment [3]; -0.0296 in [4]; 0.012 in the experiment with EW-11 (Ewing's Sarcoma); -0.0021 in experiment [5]; -0.0144 in [6]; 0.0082 in the experiment on KS-1 (Glioblastoma). Moreover, the Bliss excess is -0.0433 in experiment [7]; -0.0135 in experiment [8]; -0.0307 in the experiment with NCI-H2722 (Mesothelioma); -0.0467 in experiment [9]; 0.0053 in [10]; -0.0093 in experiment [11]. Further, the Bliss excess was -0.104 in experiment [12] and -0.0423 in [13].
